# Data as given in patent US20240226125A1, “USE OF SOTAGLIFLOZIN FOR THE TREATMENT OF PATIENTS WITH TYPE 1 DIABETES MELLITUS” (priority 2019, published 2024).
# How the values were obtained:
# [1] = system: adult patients diagnosed with T1D who have inadequate glycemic control with insulin therapy; assay: inTandem 3 phase 3 randomized double-blind placebo-controlled study; assay type: in vivo, human; details: for A1C (%) LS Mean Difference (SE) / Body weight (kg) LS Mean Difference (SE) / Fasting plasma glucose (mg/dL) LS Mean Difference (SE) / SBP (mmHg) LS Mean Difference (SE): 400 mg vs placebo; for A1C (%) LS Mean Difference (SE) / Body weight (kg) LS Mean Difference (SE) / Fasting plasma glucose (mg/dL) LS Mean Difference (SE) / SBP (mmHg) LS Mean Difference (SE) / A1C (%) LS Mean change (SE) / Body weight (kg) LS Mean change (SE) / Fasting plasma glucose (mg/dL) LS Mean change (SE) / SBP (mmHg) LS Mean change (SE): InTandem3; for A1C (%) LS Mean change (SE) / Body weight (kg) LS Mean change (SE) / Fasting plasma glucose (mg/dL) LS Mean change (SE) / SBP (mmHg) LS Mean change (SE): 400 mg
# [2] = system: patients with type 1 diabetes; details: phase II trials; cited from earlier work
# [3] = Baseline BMI <27 kg/m^2, Week 24
# [4] = Baseline BMI ≥27 kg/m^2, Week 24
# [5] = Sotagliflozin 400 mg vs placebo, Week 24
# [6] = Sotagliflozin 400 mg, Week 16, SBP ≥130 mm Hg at baseline
# [7] = Sotagliflozin 400 mg, Week 24, insulin pump users
# [8] = Sotagliflozin 400 mg, Week 24, nonpump users
compound,measurement,setting,value
"CCOc1ccc(Cc2cc([C@@H]3O[C@H](SC)[C@@H](O)[C@H](O)[C@H]3O)ccc2Cl)cc1 [sotagliflozin, (2S,3R,4R,5S,6R)-2-(4-chloro-3-(4-ethoxybenzyl)phenyl)-6-(methylthio)tetrahydro-2H-pyran-3,4,5-triol]","primary endpoint (A1C <7.0% at Week 24, no severe hypoglycemia, no DKA)",[1]; 400 mg versus placebo,reached its primary endpoint
same,A1C (%) LS Mean Difference (SE),[1]; [3],−0.37 (0.068) %
same,Body weight (kg) LS Mean Difference (SE),[1]; [3],−2.47 (0.213) kg
same,Fasting plasma glucose (mg/dL) LS Mean Difference (SE),[1]; [3],−21.7 (5.78) mg/dL
same,SBP (mmHg) LS Mean Difference (SE),[1]; [3],−3.4 (0.92) mmHg
same,A1C (%) LS Mean Difference (SE),[1]; [4],−0.54 (0.051) %
same,Body weight (kg) LS Mean Difference (SE),[1]; [4],−3.41 (0.247) kg
same,Fasting plasma glucose (mg/dL) LS Mean Difference (SE),[1]; [4],−24.3 (4.69) mg/dL
same,SBP (mmHg) LS Mean Difference (SE),[1]; [4],−3.2 (0.79) mmHg
same,A1C (%) LS Mean change (SE),[1]; [3],−0.72 (0.051) %
same,Body weight (kg) LS Mean change (SE),[1]; [3],−1.71 (0.157) kg
same,Fasting plasma glucose (mg/dL) LS Mean change (SE),[1]; [3],−10.4 (4.30) mg/dL
same,SBP (mmHg) LS Mean change (SE),[1]; [3],−1.7 (0.69) mmHg
same,A1C (%) LS Mean change (SE),[1]; [4],−0.86 (0.065) %
same,Body weight (kg) LS Mean change (SE),[1]; [4],−2.80 (0.277) kg
same,Fasting plasma glucose (mg/dL) LS Mean change (SE),[1]; [4],−23.5 (6.34) mg/dL
same,SBP (mmHg) LS Mean change (SE),[1]; [4],−3.8 (1.19) mmHg
same,efficacy compared to placebo on A1C and body weight in the overweight and obese subgroup,"[1]; BMI ≥27 kg/m^2 vs <27 kg/m^2, InTandem 3",more favorable effect
same,"Primary endpoint: Patients achieving glycated hemoglobin <7% without DKA and no severe hypoglycemia, All patients, no.","[1]; Sotagliflozin 400 mg (n = 699), Week 24",200
same,"Systolic blood pressure in patients with SBP ≥130 mm Hg at baseline, Week 16 LS mean change, LS mean difference from placebo","[1]; Sotagliflozin 400 mg vs placebo, Week 16, SBP ≥130 mm Hg at baseline",−3.5 ± 1.11 mm Hg
same,"Daily bolus insulin dose, Week 24 LS mean change from baseline ± SE, LS mean difference from placebo",[1]; [5],−2.84 ± 0.61 IU/day
same,"Daily bolus insulin dose, Week 24 LS mean percent change from baseline ± SE, LS mean difference from placebo",[1]; [5],−12.32 ± 2.98%
same,"Glycated hemoglobin, Week 24 LS mean change from baseline ± SE, LS mean difference from placebo",[1]; [5],−0.46 ± 0.04%
same,"Primary endpoint, All patients, LS mean difference from placebo (95% CI)",[1]; [5],13.4% (8.97 to 17.81)
same,"Weight, Week 24 LS mean change from baseline ± SE, LS mean difference from placebo",[1]; [5],-2.98 ± 0.166 kg
same,"Primary endpoint, Insulin pump users, LS mean difference from placebo (95% CI)","[1]; Sotagliflozin 400 mg vs placebo, Week 24, insulin pump users",15.9% (8.58 to 23.38)
same,"Primary endpoint, Nonpump users, LS mean difference from placebo (95% CI)","[1]; Sotagliflozin 400 mg vs placebo, Week 24, nonpump users",11.8% (6.14 to 17.38)
same,"Systolic blood pressure in patients with SBP ≥130 mm Hg at baseline, Week 16 LS mean change from baseline ± SE",[1]; [6],−9.2 ± 0.92 mm Hg
same,"Systolic blood pressure in patients with SBP ≥130 mm Hg at baseline, Week 16 mean ± SD",[1]; [6],131.8 ± 12.02 mm Hg
same,"Daily bolus insulin dose, Week 24 LS mean change from baseline ± SE","[1]; Sotagliflozin 400 mg, Week 24",−3.93 ± 0.47 IU/day
same,"Daily bolus insulin dose, Week 24 LS mean percent change from baseline ± SE","[1]; Sotagliflozin 400 mg, Week 24",−5.71 ± 2.29%
same,"Daily bolus insulin dose, Week 24 mean ± SD","[1]; Sotagliflozin 400 mg, Week 24",23.90 ± 15.76 IU/day
same,"Glycated hemoglobin, Week 24 LS mean change from baseline ± SE","[1]; Sotagliflozin 400 mg, Week 24",−0.79 ± 0.03%
same,"Glycated hemoglobin, Week 24 mean ± SD","[1]; Sotagliflozin 400 mg, Week 24",7.41 ± 0.95%
same,"Primary endpoint: Patients achieving glycated hemoglobin <7% without DKA and no severe hypoglycemia, All patients, (%)","[1]; Sotagliflozin 400 mg, Week 24",28.6%
same,"Weight, Week 24 LS mean change from baseline ± SE","[1]; Sotagliflozin 400 mg, Week 24",-2.21 ± 0.12 kg
same,"Weight, Week 24 mean ± SD","[1]; Sotagliflozin 400 mg, Week 24",80.19 ± 17.02 kg
same,"Primary endpoint, Insulin pump users, (%)",[1]; [7],32.0%
same,"Primary endpoint, Insulin pump users, no.",[1]; [7],88
same,"Primary endpoint, Nonpump users, (%)",[1]; [8],26.4%
same,"Primary endpoint, Nonpump users, no.",[1]; [8],112
same,glycemic control (reduction in A1C),[2],significantly improve glycemic control
